Read-outs that look alike come from different tables or passages of the source.
Legend:
Assay type in all cases: cell-based
[1] = test system: MRSA GER 1966/97 (Hanover IIIc); test: MIC agar dilution, MRSA strain 36; conditions: Staphylococcus aureus
Method: (§1) Molar equivalent concentrations were used to allow comparison between compounds of differing molecular mass. Due to weighing difficulties, any compound in solid form was melted in a water bath prior to dilution. To make ten-times strength concentrations, which takes into account agar dilution, 0.0352 mmol of each compound was weighed into plastic universal bottles and 4 mL of sterile distilled water (SDW) was added. To produce a homogenous emulsion the universals were vortexed; once achieved the emulsions were serial diluted by adding 2 mL to 2 mL of SDW.
(§2) For every 100 mL of Isosensitest agar (IST) (CM0471; Oxoid, Basingstoke, England), 3.1 g of the IST powder was added to 100 mL SDW (as per manufacturer's instructions) and sterilised for 15 minutes at 121° C. Once sterilised, the molten agar was cooled to 50° C. in a water-bath. Subsequently 4.8 g of CCEY powder (BC2160; Bioconnections, Wetherby, England), also known as Brazier's medium, was added to 100 mL SDW for every 100 mL of agar needed. This was then sterilised for 15 minutes at 121° C. Once sterilised the molten agar was cooled to 50° C. in a water-bath and 4 mL of egg-yolk emulsion (S2073; TCS Biosciences Ltd, Buckingham, United Kingdom) and 1 mL of lysed defibrinated horse blood (HB035; TCS Biosciences Ltd, Buckingham, United Kingdom) were also added for every 100 mL needed. Horse blood lysis is achieved by dilution to half concentration with SDW; when fully lysed the mixture will turn dark red in colour.
(§3) 18 mL agar was added to each universal and then poured into sterile Petri dishes. This step creates a 1/10 dilution resulting in agar plates of the required strength. Control plates for each set of strains were created by adding 18 mL of agar to 2 mL of SDW.
(§4) Suspensions of each bacterial species were prepared with a density equal to that of a 0.5 McFarland standard using a densitometer. All suspensions were made using sterile distilled water and fresh 18-20 hour cultures. As a 0.5 McFarland standard contains 1.5×10^8 CFU/mL and the multipoint inoculators applies 1 μL spots of liquid, each bacterial suspension was diluted 1/15 (20 μL suspension to 280 μL sterile distilled water).
(§5) Bacterial suspensions were prepared from fresh 18-24 hour cultures as previously described. 1 μL of each strain was inoculated onto all 100 agar plates containing a different chemical concentration and the 2 control plates. This was done using a multipoint inoculator which inoculates 20 strains per plate. All plates were incubated for 22 hours at 37° C. in aerobic conditions.
(§6) Each plate was examined for bacterial growth after 22 and 48 hours, with each being incubated in between examinations. A positive result was recorded as growth of ≧10 colonies. A negative result was recorded as growth of <10 colonies as this is equivalent to 99.9% inhibition. The lowest concentration of chemical that inhibited growth was recorded as the MIC. The results are recorded in Table IV below, where the numbers are quoted in mmol/L.
(§7) Given the positive performance of the ethoxylates of lauryl alcohol in reducing the MIC for a number of the micro-organisms tested, further MIC testing of Laureth-1 [C12E1] through to Laureth-8 [C12E8] was conducted on each of the following: • 10 strains of vancomycin-resistant enterococci (VRE)—listed in Table V below; and • 20 strains of methicillin-resistant Staphylococcus aureus (MRSA)—listed in Table VI.
(§8) The alkanol, alkanol derivatives, agar plates, and inocula were all prepared in the same way as described above.
(§9) The plates were examined in the same manner as described above and the results are recorded in Table VII below, where the numbers are quoted in mmol/L.

[2] = test system: MRSA GER 131/98 (Sger Iidc); test: MIC agar dilution, MRSA strain 35; conditions: Staphylococcus aureus
Method: as §1, §2, §3, §4, §5, §6, §7, §8, §9

Candida glabrata = test: MIC agar dilution, micro-organism 20 (3943); conditions: Nakaseomyces glabratus, Candida glabrata 3943, read-out: MIC
Method in brief: (§10)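 Agar dilution in Isosensitest/CCEY agar with egg yolk and lysed horse blood; compounds as aqueous emulsions (myristyl and lauryl alcohol with 1-methyl-2-pyrrolidone and Tween 20). 1 µL spots of 1/15-diluted 0.5 McFarland suspensions, 37 °C aerobic, read at 22 and 48 h; MIC (mmol/L) is lowest concentration giving <10 colonies.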

[3] = test system: Enterococcus casseliflavus (VRE) Clin waste; test: MIC agar dilution, VRE strain 23
Method: as §1, §2, §3, §4, §5, §6, §7, §8, §9

Enterococcus faecium = test: MIC agar dilution, micro-organism 16 (7171); conditions: Enterococcus faecium 7171, read-out: MIC
Method in brief: as §10

[4] = test system: Enterococcus faecalis (VRE) PHLS URINE 2000; test: MIC agar dilution, VRE strain 21
Method: as §1, §2, §3, §4, §5, §6, §7, §8, §9

[5] = test system: Enterococcus faecium (VRE) MB310; test: MIC agar dilution, VRE strain 29
Method: as §1, §2, §3, §4, §5, §6, §7, §8, §9

[6] = test system: Staphylococcus epidermidis; test: MIC agar dilution, micro-organism 14 (11047); conditions: Staphylococcus epidermidis 11047, read-out: MIC
Method in brief: as §10

Enterococcus faecalis = test: MIC agar dilution, micro-organism 17 (775); conditions: Enterococcus faecalis 775, read-out: MIC
Method in brief: as §10

MRSA EMRSA 15 1729/98 = test: MIC agar dilution, MRSA strain 42; conditions: Staphylococcus aureus
Method: as §1, §2, §3, §4, §5, §6, §7, §8, §9

MRSA NCTC 11939 = test: MIC agar dilution, MRSA strain 50; conditions: Staphylococcus aureus, MRSA strain 50 NCTC 11939
Method: as §1, §2, §3, §4, §5, §6, §7, §8, §9

MRSA FRA 920 = test: MIC agar dilution, MRSA strain 38; conditions: Staphylococcus aureus
Method: as §1, §2, §3, §4, §5, §6, §7, §8, §9

MRSA EMRSA 15 19972/98 = test: MIC agar dilution, MRSA strain 39; conditions: Staphylococcus aureus
Method: as §1, §2, §3, §4, §5, §6, §7, §8, §9

Measured: MIC

CCCCCCCCCCCCOCCOCCOCCOCCOCCO [L5, Pentaethylene Glycol Monododecyl Ether]
220 µM: Candida glabrata; 48 h, 48 hrs | Enterococcus faecium; 22 hrs | Enterococcus faecium; 48 hrs
110 µM: [1]; 22 hrs | [1]; 48 hrs | [2]; 22 hrs | [2]; 48 hrs | Candida glabrata; 22 h, 22 hrs | [3]; 22 hrs | [3]; 48 hrs | [4]; 22 hrs | [4]; 48 hrs | [5]; 22 hrs | [5]; 48 hrs | [6]; 22 hrs | [6]; 48 hrs | Enterococcus faecalis; 22 hrs | Enterococcus faecalis; 48 hrs | MRSA EMRSA 15 1729/98; 22 hrs | MRSA EMRSA 15 1729/98; 48 hrs | MRSA NCTC 11939; 22 hrs | MRSA NCTC 11939; 48 hrs | MRSA FRA 920; 22 hrs | MRSA FRA 920; 48 hrs | MRSA EMRSA 15 19972/98; 22 hrs | MRSA EMRSA 15 19972/98; 48 hrs

CCCCCCCCCCCCOCCOCCOCCOCCOCCOCCO [L6, Hexaethylene Glycol Monododecyl Ether]
220 µM: Candida glabrata; 22 h, 22 hrs | Candida glabrata; 48 h, 48 hrs | [3]; 22 hrs | [3]; 48 hrs | Enterococcus faecium; 48 hrs | [4]; 22 hrs | [4]; 48 hrs | [5]; 22 hrs | [5]; 48 hrs | MRSA FRA 920; 22 hrs | MRSA FRA 920; 48 hrs
440 µM: Enterococcus faecium; 22 hrs
110 µM: [1]; 22 hrs | [1]; 48 hrs | [2]; 22 hrs | [2]; 48 hrs | [6]; 22 hrs | [6]; 48 hrs | Enterococcus faecalis; 22 hrs | Enterococcus faecalis; 48 hrs | MRSA EMRSA 15 1729/98; 22 hrs | MRSA EMRSA 15 1729/98; 48 hrs | MRSA NCTC 11939; 22 hrs | MRSA NCTC 11939; 48 hrs | MRSA EMRSA 15 19972/98; 22 hrs | MRSA EMRSA 15 19972/98; 48 hrs

CCCCCCCCCCCCOCCOCCOCCOCCOCCOCCOCCO [L7, Heptaethylene Glycol Monododecyl Ether]
880 µM: [4]; 48 hrs
> 880 µM: Candida glabrata; 22 hrs | Candida glabrata; 48 hrs | Enterococcus faecium; 22 hrs | Enterococcus faecium; 48 hrs
440 µM: [4]; 22 hrs | MRSA EMRSA 15 1729/98; 22 hrs | MRSA EMRSA 15 1729/98; 48 hrs | MRSA FRA 920; 48 hrs
110 µM: [1]; 22 hrs | [1]; 48 hrs | [2]; 22 hrs | [5]; 22 hrs | [5]; 48 hrs | [6]; 22 hrs | [6]; 48 hrs | Enterococcus faecalis; 22 hrs | Enterococcus faecalis; 48 hrs | MRSA NCTC 11939; 22 hrs | MRSA NCTC 11939; 48 hrs
> 440 µM: MRSA EMRSA 15 19972/98; 22 hrs | MRSA EMRSA 15 19972/98; 48 hrs
220 µM: [2]; 48 hrs | [3]; 22 hrs | [3]; 48 hrs | MRSA FRA 920; 22 hrs
